Experimental data: patent publication US12145944B2, “Imidazopyrimidines as EED inhibitors and the use thereof” (THE REGENTS OF THE UNIVERSITY OF MICHIGAN, priority 2019, dated 2024)
Read-outs that look alike come from different tables or passages of the source.

Key:
[1] = tested on: KARPAS422 human B cell lymphoma cell; assay: Cell proliferation, KARPAS422, 7 day treatment (WST-8); format: cell-based; conditions: Homo sapiens, KARPAS-422, 168 h, 7 day treatment, read-out: Karpas Cell line
Outline: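 KARPAS422 cells seeded at 2 000-3 000 cells/well and exposed to serially diluted compounds for 7 days at 37 °C, 5% CO2. Growth measured by WST-8 (1-4 h, absorbance 450 nm). Readings normalized to DMSO-treated cells; IC50 from nonlinear regression.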

Pfeiffer cell line = assay: Anti-proliferative activity, Pfeiffer cell line, 7 day treatment; format: cell-based; conditions: Homo sapiens, 168 h, 7 day treatment, read-out: Pfeiffer Cell line
Experimental: “N/A” stands for “not assessed”.
To assess the effect of PRC2 inhibition on cell growth, cells were seeded in 96-well cell culture plates at a density of 2 000-3 000 cells/well in 200 µL of culture medium, and treated with serially diluted compounds for 7 days at 37° C. in an atmosphere of 5% CO2. Cell growth was evaluated by a […] WST-8 assay (Dojindo Molecular Technologies) using a Tecan Infinite M1000 multimode microplate reader (Tecan, Morrisville, NC). The WST-8 reagent was added to the plate, incubated for 1-4 h, and read at 450 nm. The readings were normalized to the DMSO-treated cells, and the IC50 was calculated by nonlinear regression analysis using GraphPad Prism 6 software

[2] = anti-proliferative IC50 class, Karpas 422 cell line
[3] = anti-proliferative IC50 class, Pfeiffer cell line
[4] = anti-proliferative IC50, Karpas 422 cell line
[5] = anti-proliferative IC50, Pfeiffer cell line

Row | Compound | IC50 [1, 2] | IC50 (Pfeiffer cell line; [3]) | IC50 [1, 4] | IC50 (Pfeiffer cell line; [5])
1 | Cc1ccc2c(n1)Cc1conc1-c1ncn3c(NCc4c(F)ccc5c4CCO5)ncc-2c13 [E 36, N-((5-fluoro-2,3-dihydrobenzofuran-4-yl)methyl)-8-methyl-6H-4-oxa-2,3,7,12,13a-pentaazabenzo[4,5]cyclopenta[7,8]cycloocta [1,2,3-cd]inden-13-amine] | 10 to 100 nM | 10 to 100 nM |  | 
2 | CCc1cnc2n1Cc1cc(C(F)(F)F)ncc1-c1cnc(NCc3c(F)ccc4c3CCO4)n3cnc-2c13 [E 37, 5-ethyl-N-((5-fluoro-2,3-dihydrobenzofuran-4-yl)methyl)-8-(trifluoromethyl)-6H-2,3,5a,9,12,13a-hexaazabenzo[4,5]cyclopenta[7,8]cycloocta[1,2,3-cd]inden-13-amine] | 10 to 100 nM | 10 to 100 nM |  | 
3 | CCc1cnc2n1Cc1nc(C)ccc1-c1cnc(NCc3c(F)ccc4c3CCO4)n3cnc-2c13 [E 38, 5-ethyl-N-((5-fluoro-2,3-dihydrobenzofuran-4-yl)methyl)-8-methyl-6H-2,3,5a,7,12,13a-hexaazabenzo[4,5]cyclopenta[7,8]cycloocta[1,2,3-cd]inden-13-amine] | 10 to 100 nM | 10 to 100 nM |  | 
4 | Cc1ccc2c(n1)CN(CC(F)(F)F)C(=O)c1ncn3c(NCc4c(F)ccc5c4CCCO5)ncc-2c13 [E 39, 12-(((6-fluorochroman-5-yl)methyl)amino)-7-methyl-4-(2,2,2-trifluoroethyl)-4,5-dihydro-3H-2,4,6,11,12a-pentaazabenzo[4,5]cycloocta[1,2,3-cd]inden-3-one] | 10 to 100 nM | < 10 nM |  | 
5 | O=C1c2ncn3c(NCc4c(F)ccc5c4CCO5)ncc(c23)-c2ccc(C3CCOCC3)nc2CN1CC(F)(F)F [E 45, 12-(((5-fluoro-2,3-dihydrobenzofuran-4-yl)methyl)amino)-7-(tetrahydro-2H-pyran-4-yl)-4-(2,2,2-trifluoroethyl)-4,5-dihydro-3H-2,4,6,11,12a-pentaazabenzo[4,5]cycloocta[1,2,3-cd]inden-3-one] | < 10 nM | < 10 nM |  | 
6 | CC(C)(C)c1cc2c(cn1)-c1cnc(NCc3c(F)ccc4c3CCO4)n3cnc(c13)C(=O)N(CC(F)(F)F)C2 [E 46, 7-(tert-butyl)-12-(((5-fluoro-2,3-dihydrobenzofuran-4-yl)methyl)amino)-4-(2,2,2-trifluoroethyl)-4,5-dihydro-3H-2,4,8,11,12a-pentaazabenzo[4,5]cycloocta[1,2,3-cd]inden-3-one] | < 10 nM | < 10 nM |  | 
7 | CC(C)c1ccc2c(n1)CN(CC(F)F)C(=O)c1ncn3c(NCc4c(F)ccc5c4CCO5)ncc-2c13 [E 47, 4-(2,2-difluoroethyl)-12-(((5-fluoro-2,3-dihydrobenzofuran-4-yl)methyl)amino)-7-isopropyl-4,5-dihydro-3H-2,4,6,11,12a-pentaazabenzo[4,5]cycloocta[1,2,3-cd]inden-3-one] | < 10 nM | < 10 nM |  | 
8 | O=C1c2ncn3c(NCc4c(F)ccc5c4CCO5)ncc(c23)-c2ccc(C3COCCO3)nc2CN1CC(F)(F)F (stereo not drawn) [E 48, 7-(1,4-dioxan-2-yl)-12-(((5-fluoro-2,3-dihydrobenzofuran-4-yl)methyl)amino)-4-(2,2,2-trifluoroethyl)-4,5-dihydro-3H-2,4,6,11,12a-pentaazabenzo[4,5]cycloocta[1,2,3-cd]inden-3-one] | < 10 nM | < 10 nM |  | 
9 | O=C1c2ncn3c(NCc4c(F)ccc5c4CCO5)ncc(c23)-c2ccc(CC3COCCO3)nc2CN1CC(F)(F)F (stereo not drawn) [E 49, 7-((1,4-dioxan-2-yl)methyl)-12-(((5-fluoro-2,3-dihydrobenzofuran-4-yl)methyl)amino)-4-(2,2,2-trifluoroethyl)-4,5-dihydro-3H-2,4,6,11,12a-pentaazabenzo[4,5]cycloocta[1,2,3-cd]inden-3-one] | < 10 nM | < 10 nM |  | 
10 | CC(C)(C)c1ccc2c(n1)CN(CC(F)(F)F)C(=O)c1ncn3c(NCc4c(F)ccc5c4CCO5)ncc-2c13 [E 50, 7-(tert-butyl)-12-(((5-fluoro-2,3-dihydrobenzofuran-4-yl)methyl)amino)-4-(2,2,2-trifluoroethyl)-4,5-dihydro-3H-2,4,6,11,12a-pentaazabenzo[4,5]cycloocta[1,2,3-cd]inden-3-one] | < 10 nM | < 10 nM |  | 
11 | O=C1c2ncn3c(NCc4c(F)ccc5c4CCO5)ncc(c23)-c2ccc(C3CCC3)nc2CN1CC(F)(F)F [E 52, 7-cyclobutyl-12-(((5-fluoro-2,3-dihydrobenzofuran-4-yl)methyl)amino)-4-(2,2,2-trifluoroethyl)-4,5-dihydro-3H-2,4,6,11,12a-pentaazabenzo[4,5]cycloocta[1,2,3-cd]inden-3-one] | < 10 nM | < 10 nM |  | 
12 | Cc1cccc(F)c1CNc1ncc2c3c(ncn13)COCc1ncccc1-2 [compound 1, N-(2-fluoro-6-methylbenzyl)-3H,5H-4-oxa-2,6,11,12a-tetraazabenzo[4,5]cycloocta[1,2,3-cd]inden-12-amine] |  |  | > 100 nM | > 100 nM
13 | O=C1OCc2ncccc2-c2cnc(NCc3c(F)ccc4occc34)n3cnc1c23 [compound 10, 12-(((5-fluorobenzofuran-4-yl)methyl)amino)-3H,5H-4-oxa-2,6,11,12a-tetraazabenzo[4,5]cycloocta[1,2,3-cd]inden-3-one] |  |  | 15.8 nM | 2.93 nM
14 | O=C1OCc2cc(C(F)(F)F)ncc2-c2cnc(NCc3c(F)ccc4c3CCO4)n3cnc1c23 [compound 13, 12-(((5-fluoro-2,3-dihydrobenzofuran-4-yl)methyl)amino)-7-(trifluoromethyl)-3H,5H-4-oxa-2,8,11,12a-tetraazabenzo[4,5]cycloocta[1,2,3-cd]inden-3-one] |  |  | 9.03 nM | 1.99 nM

Continued, values first:

Row | IC50 [1, 2] | IC50 (Pfeiffer cell line; [3]) | IC50 [1, 4] | IC50 (Pfeiffer cell line; [5]) | Compound
15 |  |  | 32.2 nM | 18.1 nM | CS(=O)(=O)c1ccc2c(c1)NC(=O)c1ncn3c(NCc4c(F)ccc5c4CCO5)ncc-2c13 [compound 5, 11-(((5-fluoro-2,3-dihydrobenzofuran-4-yl)methyl)amino)-6-(methylsulfonyl)-2,4,10,11a-tetraazadibenzo[cd,f]azulen-3(4H)-one]
16 |  |  | 1.98 nM | 0.22 nM | O=C1OCc2ccccc2-c2cnc(NCc3c(F)ccc4c3CCO4)n3cnc1c23 [compound 6, 12-(((5-fluoro-2,3-dihydrobenzofuran-4-yl)methyl)amino)-3H,5H-4-oxa-2,11,12a-triazabenzo[4,5]cycloocta[1,2,3-cd]inden-3-one]
17 |  |  | 3.35 nM | 0.68 nM | O=C1OCc2cc(F)ccc2-c2cnc(NCc3c(F)ccc4c3CCO4)n3cnc1c23 [compound 7, 7-fluoro-12-(((5-fluoro-2,3-dihydrobenzofuran-4-yl)methyl)amino)-3H,5H-4-oxa-2,11,12a-triazabenzo[4,5]cycloocta[1,2,3-cd]inden-3-one]
18 |  |  | 2.91 nM | 0.57 nM | O=C1OCc2cc(C(F)(F)F)ccc2-c2cnc(NCc3c(F)ccc4c3CCO4)n3cnc1c23 [compound 8, 12-(((5-fluoro-2,3-dihydrobenzofuran-4-yl)methyl)amino)-7-(trifluoromethyl)-3H,5H-4-oxa-2,11,12a-triazabenzo[4,5]cycloocta[1,2,3-cd]inden-3-one]
19 |  |  | 5.6 nM | 1.81 nM | O=C1OCc2cc(F)ccc2-c2cnc(NCc3cccc4c3CCO4)n3cnc1c23 [compound 9, 12-(((2,3-dihydrobenzofuran-4-yl)methyl)amino)-7-fluoro-3H,5H-4-oxa-2,11,12a-triazabenzo[4,5]cycloocta[1,2,3-cd]inden-3-one]
20 |  |  | 4.61 nM | 1.22 nM | O=C1OCc2c(F)cccc2-c2cnc(NCc3c(F)ccc4c3CCO4)n3cnc1c23 [compound 11, 6-fluoro-12-(((5-fluoro-2,3-dihydrobenzofuran-4-yl)methyl)amino)-3H,5H-4-oxa-2,11,12a-triazabenzo[4,5]cycloocta[1,2,3-cd]inden-3-one]
21 |  |  | 3.49 nM | 0.36 nM | O=C1OCc2nc(C(F)(F)F)ccc2-c2cnc(NCc3c(F)ccc4c3CCO4)n3cnc1c23 [compound 14, 12-(((5-fluoro-2,3-dihydrobenzofuran-4-yl)methyl)amino)-7-(trifluoromethyl)-3H,5H-4-oxa-2,6,11,12a-tetraazabenzo[4,5]cycloocta[1,2,3-cd]inden-3-one]
22 |  |  | 4.36 nM | 1.25 nM | O=C1NCc2ccccc2-c2cnc(NCc3c(F)ccc4c3CCO4)n3cnc1c23 [compound 15, 12-(((5-fluoro-2,3-dihydrobenzofuran-4-yl)methyl)amino)-4,5-dihydro-3H-2,4,11,12a-tetraazabenzo[4,5]cycloocta[1,2,3-cd]inden-3-one]
23 |  |  | 20.5 nM | 4.17 nM | O=C1NCc2cc(F)ccc2-c2cnc(NCc3c(F)ccc4c3CCO4)n3cnc1c23 [compound 17, 7-fluoro-12-(((5-fluoro-2,3-dihydrobenzofuran-4-yl)methyl)amino)-4,5-dihydro-3H-2,4,11,12a-tetraazabenzo[4,5]cycloocta[1,2,3-cd]inden-3-one]
24 |  |  | 15.3 nM | 0.73 nM | Cc1ccc2c(n1)COC(=O)c1ncn3c(NCc4c(F)ccc5c4CCO5)ncc-2c13 [compound 18, 12-(((5-fluoro-2,3-dihydrobenzofuran-4-yl)methyl)amino)-7-methyl-3H,5H-4-oxa-2,6,11,12a-tetraazabenzo[4,5]cycloocta[1,2,3-cd]inden-3-one]
